ChEMBL document CHEMBL5543131, “Discovery of Highly Potent Solute Carrier 13 Member 5 (SLC13A5) Inhibitors for the Treatment of Hyperlipidemia” (J Med Chem, 2024)
Activity calls are given as the source filed them. The calls are words filed in the database; no cut-off is given here.

How the values were obtained:
Mus musculus [1] = assay: Lipid lowering activity in PCN-induced hyperlipidemic male C57BL/6J mouse model assessed as decrease in plasma triglyceride level at 10 to 30 mg/kg, IG preadministered with compound for 15 to 30 mins followed by PCN administration and measured after 7 days; format: functional, organism-based; conditions: dose 10-30 mg/kg, time 15-10110 min
Mus musculus [2] = assay: Lipid lowering activity in starvation-induced hyperlipidemic male C57BL/6J mouse model assessed as decrease in NEFA level in plasma at 10 to 30 mg/kg, ip starved for 48 hrs followed by compound administration and measured after 2 hrs; format: functional, organism-based; conditions: dose 10-30 mg/kg
Mus musculus [3] = assay: Lipid lowering activity in starvation-induced hyperlipidemic male C57BL/6J mouse model assessed as downregulation of ACC1 gene expression level starved for 48 hrs followed by oral administration of compound and measured after 2 hrs by RT-qPCR analysis; format: functional, organism-based; conditions: dose 10-30 mg/kg
Mus musculus [4] = assay: Lipid lowering activity in starvation-induced hyperlipidemic male C57BL/6J mouse model assessed as decrease in LDL to HDL cholesterol ratio at 10 to 30 mg/kg, po starved for 48 hrs followed by compound administration and measured after 2 hrs; format: functional, organism-based; conditions: dose 10-30 mg/kg
AML12 [5] = assay: Lipid lowering effect on PCN-induced lipid accumulation in mouse AML12 cells assessed as decrease in triglyceride level preincubated with compound for 30 mins followed by PCN addition and measured after 24 hrs; format: functional, cell-based; conditions: dose 3-30 µM, time 24.5 hrs
Mus musculus [6] = assay: In vivo inhibition of SLC13A5 in starvation-induced hyperlipidemic male C57BL/6J mouse model assessed as decrease in liver citrate level at 30 mg/kg, ip starved for 48 hrs followed by compound administration and measured after 2 hrs; format: functional, organism-based
Hepatocyte [7] = assay: Lipid lowering effect on PCN-induced lipid accumulation in mouse Primary hepatocyte assessed as decrease in intracellular triglyceride level; format: functional, cell-based; conditions: dose 3-30 µM
Mus musculus [8] = assay: Lipid lowering activity in PCN-induced hyperlipidemic male C57BL/6J mouse model assessed as decrease in lipid accumulation in liver at 30 mg/kg, IG preadministered with compound for 15 to 30 mins followed by PCN administration and measured after 7 days by H&E staining based analysis; format: functional, organism-based; conditions: time 15-10110 min
[9] = target: T1, Na(+)/dicarboxylate cotransporter 3 (Homo sapiens) (UniProt Q8WWT9); assay: Inhibition of NaDC3 (unknown origin) citrate transport activity
T1 sequence (whole entry): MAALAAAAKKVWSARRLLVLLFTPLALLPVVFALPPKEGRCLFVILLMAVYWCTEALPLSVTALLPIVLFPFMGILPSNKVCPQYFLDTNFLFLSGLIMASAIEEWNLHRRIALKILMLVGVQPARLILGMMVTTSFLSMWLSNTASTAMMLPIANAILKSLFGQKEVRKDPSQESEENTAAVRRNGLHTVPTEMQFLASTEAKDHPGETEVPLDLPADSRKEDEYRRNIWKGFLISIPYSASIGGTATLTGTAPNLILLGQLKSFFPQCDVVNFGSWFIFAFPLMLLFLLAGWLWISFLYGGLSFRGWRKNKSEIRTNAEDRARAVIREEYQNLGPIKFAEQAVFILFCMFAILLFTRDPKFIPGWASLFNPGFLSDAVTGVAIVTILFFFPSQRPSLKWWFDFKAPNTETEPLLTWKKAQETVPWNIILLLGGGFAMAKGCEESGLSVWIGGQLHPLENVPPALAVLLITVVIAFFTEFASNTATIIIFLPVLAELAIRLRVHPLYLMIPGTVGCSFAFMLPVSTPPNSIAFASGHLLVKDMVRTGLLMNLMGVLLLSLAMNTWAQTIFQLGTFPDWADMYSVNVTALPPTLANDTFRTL

Mus musculus [10] = assay: Lipid lowering activity in starvation-induced hyperlipidemic male C57BL/6J mouse model assessed as decrease in triglyceride level in plasma at 10 to 30 mg/kg, ip starved for 48 hrs followed by compound administration and measured after 2 hrs; format: functional, organism-based; conditions: dose 10-30 mg/kg
HepG2 [11] = assay: Lipid lowering effect on PCN-induced lipid accumulation in human HepG2 cells assessed as decrease in ACC1 mRNA expression level at 3 to 30 uM by RT-qPCR analysis; format: functional, cell-based; conditions: dose 3-30 µM
AML12 [12] = assay: Effect on lipid accumulation in oleic and palmitic acid induced mouse AML12 cells assessed as decrease in total cholesterol level; format: functional, cell-based; conditions: dose 3-30 µM
Mus musculus [13] = assay: Lipid lowering activity in starvation-induced hyperlipidemic male C57BL/6J mouse model assessed as decrease in NEFA level in liver at 10 to 30 mg/kg, ip starved for 48 hrs followed by compound administration and measured after 2 hrs; format: functional, organism-based; conditions: dose 10-30 mg/kg
Hepatocyte [14] = assay: Lipid lowering effect on PCN-induced lipid accumulation in mouse Primary hepatocyte assessed as decrease in HMGCR mRNA expression level at 3 to 30 uM by RT-qPCR analysis; format: functional, cell-based; conditions: dose 3-30 µM
Mus musculus [15] = assay: In vivo inhibition of SLC13A5 in starvation-induced hyperlipidemic male C57BL/6J mouse model assessed as increase in plasma citrate level at 30 mg/kg, ip starved for 48 hrs followed by compound administration and measured after 2 hrs; format: functional, organism-based
Mus musculus [16] = assay: Lipid lowering activity in starvation-induced hyperlipidemic male C57BL/6J mouse model assessed as decrease in triglyceride level in liver at 10 to 30 mg/kg, ip starved for 48 hrs followed by compound administration and measured after 2 hrs; format: functional, organism-based; conditions: dose 10-30 mg/kg
[17] = target: Na(+)/citrate cotransporter (Homo sapiens) (UniProt Q86YT5); assay: Potency index, ratio of citrate Km to test compound Km for binding affinity to SLC13A5 (unknown origin)
AML12 [18] = assay: Lipid lowering effect on PCN-induced lipid accumulation in mouse AML12 cells assessed as decrease in HMGCR mRNA expression level at 3 to 30 uM preincubated with compound for 30 mins followed by PCN addition and measured after 24 hrs by RT-qPCR analysis; format: functional, cell-based; conditions: dose 3-30 µM, time 24.5 hrs
Hepatocyte [19] = assay: Lipid lowering effect on PCN-induced lipid accumulation in mouse Primary hepatocyte assessed as decrease in intracellular total cholesterol level; format: functional, cell-based; conditions: dose 3-30 µM
HepG2 [20] = assay: Lipid lowering effect on PCN-induced lipid accumulation in human HepG2 cells assessed as decrease in intracellular total cholesterol level; format: functional, cell-based; conditions: dose 3-30 µM
HepG2 [21] = assay: Lipid lowering effect on PCN-induced lipid accumulation in human HepG2 cells assessed as decrease in intracellular triglyceride level; format: functional, cell-based; conditions: dose 3-30 µM
Mus musculus [22] = assay: Lipid lowering activity in PCN-induced hyperlipidemic male C57BL/6J mouse model assessed as decrease in liver total cholesterol level at 10 to 30 mg/kg, IG preadministered with compound for 15 to 30 mins followed by PCN administration and measured after 7 days; format: functional, organism-based; conditions: dose 10-30 mg/kg, time 15-10110 min
Mus musculus [23] = assay: Lipid lowering activity in PCN-induced hyperlipidemic male C57BL/6J mouse model assessed as decrease in liver triglyceride level at 10 to 30 mg/kg, IG preadministered with compound for 15 to 30 mins followed by PCN administration and measured after 7 days; format: functional, organism-based; conditions: dose 10-30 mg/kg, time 15-10110 min
Mus musculus [24] = assay: Lipid lowering activity in PCN-induced hyperlipidemic male C57BL/6J mouse model assessed as decrease in FASN mRNA expression level preadministered intragastrically with compound for 15 to 30 mins followed by PCN administration and measured after 7 days by RT-qPCR analysis; format: functional, organism-based; conditions: dose 10-30 mg/kg, route ig, time 15-10110 min
AML12 [25] = assay: Lipid lowering effect on PCN-induced lipid accumulation in mouse AML12 cells assessed as decrease in ACLY mRNA expression level at 3 to 30 uM preincubated with compound for 30 mins followed by PCN addition and measured after 24 hrs by RT-qPCR analysis; format: functional, cell-based; conditions: dose 3-30 µM, time 24.5 hrs

Sequence of Na(+)/citrate cotransporter (Homo sapiens) (Q86YT5 whole entry, looked up): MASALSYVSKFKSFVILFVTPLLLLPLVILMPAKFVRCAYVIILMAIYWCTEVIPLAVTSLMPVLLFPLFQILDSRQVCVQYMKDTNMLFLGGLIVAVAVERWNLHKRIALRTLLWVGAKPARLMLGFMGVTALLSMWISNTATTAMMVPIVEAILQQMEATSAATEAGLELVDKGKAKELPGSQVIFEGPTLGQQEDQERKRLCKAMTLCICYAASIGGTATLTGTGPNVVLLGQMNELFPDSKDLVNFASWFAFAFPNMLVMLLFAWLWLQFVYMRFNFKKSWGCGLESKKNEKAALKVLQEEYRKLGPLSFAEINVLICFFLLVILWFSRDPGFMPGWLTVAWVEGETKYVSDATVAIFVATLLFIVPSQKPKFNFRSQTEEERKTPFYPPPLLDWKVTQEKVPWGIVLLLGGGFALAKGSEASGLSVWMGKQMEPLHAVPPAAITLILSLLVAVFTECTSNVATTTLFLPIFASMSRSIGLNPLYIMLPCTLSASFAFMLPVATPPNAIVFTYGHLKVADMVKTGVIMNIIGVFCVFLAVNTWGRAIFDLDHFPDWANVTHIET

With `O=C(O)CC(O)(CCc1ccc(-c2ccccc2)cc1)C(=O)O` (stereo not given) as the molecule, how does the Activity (Mus musculus [1]) read?
The Activity was “Active”.

And the Activity (Mus musculus [2])?
The Activity was “Active”.

What about the Activity (Mus musculus [3]) of the same molecule?
The Activity was “Dose-Dependent Effect”.

What about the Activity (Mus musculus [4]) of the same molecule?
The Activity was “Active”.

And the Activity (AML12 [5])?
Its Activity is “Dose-Dependent Effect”.

What about the inhibition (Mus musculus [6]) of the same molecule?
The inhibition was “Active”.

What about the Activity (Hepatocyte [7]) of the same molecule?
Its Activity is “Dose-Dependent Effect”.

What about the Activity (Mus musculus [8]) of the same molecule?
Its Activity is “Active”.

What about the inhibition [9] of the same molecule?
The inhibition was “inactive”.

And the Activity (Mus musculus [10])?
Its Activity is “Active”.

And the Activity (HepG2 [11])?
The Activity was “Active”.

And the Activity (AML12 [12])?
Its Activity is “Dose-Dependent Effect”.

What about the Activity (Mus musculus [13]) of the same molecule?
The Activity was “Active”.

What about the Activity (Hepatocyte [14]) of the same molecule?
The Activity was “Active”.

And the inhibition (Mus musculus [15])?
The inhibition was “Active”.

What about the Activity (Mus musculus [16]) of the same molecule?
The Activity was “Active”.

What about the Ratio [17] of the same molecule?
Its Ratio is 2.

And the Activity (AML12 [18])?
Its Activity is “Active”.

And the Activity (Hepatocyte [19])?
The Activity was “Dose-Dependent Effect”.

What about the Activity (HepG2 [20]) of the same molecule?
Its Activity is “Dose-Dependent Effect”.

And the Activity (HepG2 [21])?
The Activity was “Dose-Dependent Effect”.

And the Activity (Mus musculus [22])?
Its Activity is “Active”.

What about the Activity (Mus musculus [23]) of the same molecule?
Its Activity is “Active”.

And the Activity (Mus musculus [24])?
Its Activity is “Dose-Dependent Effect”.

And the Activity (AML12 [25])?
Its Activity is “Active”.
